Patent US20100056536A1, “METHOD OF TREATING ATRIAL FIBRILLATION” (priority 2008, published 2010)

Columns and labels:
[1] = biological target: T1, peak sodium channel current (INa) in canine atrial myocytes (Canis lupus familiaris, UniProt Q865W3); experiment: Whole-cell patch clamp, steady-state inactivation of sodium current in atrial myocytes; type: cell-based; conditions: 15 μM ranolazine, n=5, before drug −86.35±0.19
T1 construct: Whole-cell peak sodium currents were recorded at 37° C. in low-sodium external solution from myocytes isolated; endogenous in cells; host or cells: myocytes isolated from right atrium and left ventricle of adult mongrel dogs
Experimental: (§1) FIG. 1 presents the voltage dependence of activation and steady-state inactivation of sodium current in canine atrial versus ventricular myocytes. (A) Current-voltage relationship for sodium current in ventricular and atrial myocytes. […] (B) Summarized steady-state inactivation curves. […] Insets show representative atrial and ventricular traces after 1-s conditioning pulses to the indicated potentials. (C) Steady-state inactivation curves before and after addition of 15 μM ranolazine.
(§2) The electrophysiological effects of therapeutic concentrations of ranolazine (1 to 10μmol/L) and lidocaine (2.1 to 21 μmol/L) were evaluated in canine isolated coronary-perfused atrial and ventricular preparations.
(§3) Whole-cell peak sodium currents were recorded at 37° C. in low-sodium external solution from myocytes isolated from the right atrium and left ventricle (LV) of adult mongrel dogs.

[2] = tested on: canine isolated coronary artery-perfused right atrial preparations; experiment: Electrophysiology (APD90, sodium channel-dependent parameters) in isolated coronary artery-perfused atrial preparations; conditions: for effect on action potential duration (APD90) in atria, in words: ranolazine 1 to 10 μmol/L, lidocaine 2.1 to 21 μmol/L
Experimental: (§4) Experiments were performed using isolated arterially perfused canine right atrial preparations and left ventricular arterially perfused wedge preparations (Antzelevitch et al. Circulation. 2004;110:904-910, Burashnikov et al. Am J Physiol. 2004;286:H2393-H2400., and Burashnikov et al. Circulation. 2003;107:2355-2360.) Therapeutic plasma concentrations of ranolazine (1-10 μM), lidocaine (2.1-21 μM), and propafenone (0.3-3.0 μM) were examined.
(§5) Sodium channel-mediated parameters, such as the maximum rate of rise of the AP upstroke (Vmax), conduction velocity (CV), diastolic threshold of excitation (DTE), and post-repolarization refractoriness (PRR) were evaluated. PRR was defined as the difference between action potential duration (APD) and atrial effective refractory period (ERP).

[3] = tested on: Purkinje fibers; experiment: Action potential duration in Purkinje fibers; type: cell-based, canine; conditions: ranolazine 1 to 10 μmol/L
Experimental: as §2

[4] = biological target: T2, rapidly activating delayed rectifier potassium current (IKr) (Canis lupus familiaris, UniProt Q9TSZ3); conditions: read-out: IC50 for block of IKr; cited from earlier work
T2 sequence (Q9TSZ3 1-1158): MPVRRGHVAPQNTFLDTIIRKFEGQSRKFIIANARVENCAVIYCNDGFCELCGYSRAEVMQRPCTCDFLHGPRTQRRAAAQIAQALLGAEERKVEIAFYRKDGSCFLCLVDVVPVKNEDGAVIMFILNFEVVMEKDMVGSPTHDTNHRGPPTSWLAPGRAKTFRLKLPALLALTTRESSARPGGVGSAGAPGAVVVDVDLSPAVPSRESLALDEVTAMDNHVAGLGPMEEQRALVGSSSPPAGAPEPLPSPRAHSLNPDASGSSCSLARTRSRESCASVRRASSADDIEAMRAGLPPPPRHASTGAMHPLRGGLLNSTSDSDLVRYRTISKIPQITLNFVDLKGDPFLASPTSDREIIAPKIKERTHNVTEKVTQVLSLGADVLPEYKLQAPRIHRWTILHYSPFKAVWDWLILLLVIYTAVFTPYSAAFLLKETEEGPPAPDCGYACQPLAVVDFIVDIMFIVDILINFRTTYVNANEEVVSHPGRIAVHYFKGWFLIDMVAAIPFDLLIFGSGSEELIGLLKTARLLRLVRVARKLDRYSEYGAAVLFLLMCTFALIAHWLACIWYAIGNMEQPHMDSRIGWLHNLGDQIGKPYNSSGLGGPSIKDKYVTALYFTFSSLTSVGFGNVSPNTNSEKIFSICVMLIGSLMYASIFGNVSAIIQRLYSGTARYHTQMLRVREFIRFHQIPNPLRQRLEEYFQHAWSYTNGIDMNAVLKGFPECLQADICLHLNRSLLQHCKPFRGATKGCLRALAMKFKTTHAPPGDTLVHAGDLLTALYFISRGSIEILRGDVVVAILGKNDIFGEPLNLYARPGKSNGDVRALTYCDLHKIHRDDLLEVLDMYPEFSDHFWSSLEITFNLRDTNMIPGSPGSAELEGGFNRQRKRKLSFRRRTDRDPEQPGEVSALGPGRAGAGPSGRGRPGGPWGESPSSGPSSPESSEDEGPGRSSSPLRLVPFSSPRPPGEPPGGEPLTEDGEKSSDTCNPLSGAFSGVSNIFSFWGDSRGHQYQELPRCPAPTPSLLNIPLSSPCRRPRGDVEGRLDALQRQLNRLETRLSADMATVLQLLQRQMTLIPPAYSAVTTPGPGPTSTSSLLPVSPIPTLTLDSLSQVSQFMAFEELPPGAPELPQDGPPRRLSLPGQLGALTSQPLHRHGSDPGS

[5] = tested on: acetylcholine-mediated AF in coronary artery-perfused right atrial preparations; experiment: Acetylcholine-mediated persistent AF in coronary artery-perfused right atrial preparations; conditions: for Termination of AF (share of preparations): acetylcholine (0.5 μM) persistent AF, ranolazine 10.0 μM, lidocaine 21.0 μM, propafenone 1.5-3.0 μM
[6] = tested on: arterially-perfused right atrial preparations; experiment: Transmembrane action potentials in arterially-perfused right atrial preparations (Example 4); conditions: for action potential duration of pectinate muscle (PM-APD75): untreated 154±11
Source text: Floating microelectrode techniques were used to record transmembrane action potentials (BCL=500 ms).

[7] = biological target: T3, peak INa (Canis lupus familiaris, UniProt Q865W3); conditions: canine ventricular myocytes; read-out: IC50 for inhibition of peak INa; cited from earlier work
T3 construct: […]; host or cells: canine ventricular myocytes

[8] = tested on: ventricular Purkinje fibers and M cell preparations; conditions: paced at a CL of 500 ms; read-out: IC50 for suppression of Vmax; cited from earlier work
[9] = biological target: T4, peak sodium channel current (INa) in canine ventricular myocytes (Canis lupus familiaris, UniProt Q865W3); experiment: Whole-cell patch clamp, steady-state inactivation of sodium current in ventricular myocytes; type: cell-based; conditions: 15 μM ranolazine, before drug −72.53±0.16
T4 construct: Whole-cell peak sodium currents were recorded at 37° C. in low-sodium external solution from myocytes isolated; endogenous in cells; host or cells: myocytes isolated from right atrium and left ventricle of adult mongrel dogs
Experimental: as §1, §2, §3

[10] = tested on: self-terminating AF in atria exposed to ischemia and β-adrenergic agonists; experiment: AF induced by ischemia and β-adrenergic agonists in atria; type: cell-based, canine; conditions: ranolazine 5-10 μM
Source text: Ischemia/reperfusion coupled with iso-proterenol mimics the conditions that prevail during acute myocardial infarction or the substrate encountered postsurgically.

[11] = tested on: canine left ventricular arterially perfused wedge preparations; experiment: Electrophysiology (APD90, sodium channel-dependent parameters) in arterially perfused ventricular wedge preparations; conditions: for DTE (% Δ) Ventricles, diastolic threshold of excitation: ranolazine 10 μM, lidocaine 21 μM, propafenone 1.5 μM; for effect on APD90 in ventricular myocardium, in words: ranolazine 1 to 10 μmol/L, lidocaine 2.1 to 21 μmol/L
Experimental: as §4, §5

[12] = tested on: canine superfused PV sleeve preparations; experiment: Action potential recording in superfused pulmonary vein (PV) sleeve preparations; type: cell-based
Experimental: Action potentials (AP) were recorded from canine superfused PV sleeves using microelectrode techniques. Acetylcholine (ACh, 1 μM), isoproterenol (Iso, 1 μM), or their combination was used to induce EADs, DADs, and triggered activity.

[13] = biological target: T5, late INa (Canis lupus familiaris, UniProt Q865W3); conditions: canine ventricular myocytes; read-out: IC50 for inhibition of late INa; cited from earlier work
T5 construct: host or cells: canine ventricular myocytes

[14] = acute ranolazine 5 μM in chronic AMIO treated atria, BCL=500 ms
[15] = drug alone: chronic AMIO (40 mg/kg daily for 6 weeks) or acute ranolazine 5 μM in untreated atria, BCL=500 ms
[16] = drug alone: chronic AMIO (40 mg/kg daily for 6 weeks) or acute ranolazine 5 μM in untreated atria, BCL=500 ms, untreated 158±18
[17] = drug alone: chronic Amio (6 weeks, 40 mg/kg daily) PV sleeves, or 10 μM ranolazine in untreated controls, untreated 124 ms

| Structure (SMILES) | atrial selectivity of depression of sodium channel-dependent parameters (atria versus ventricles), in words [2] | prolongation of APD90 in atria ([2]; CL=500 ms) [%] | effect on action potential duration (APD90) in atria, in words [2] | Termination of AF (share of preparations) [5] | action potential duration of pectinate muscle (PM-APD75) [6, 15] [ms] | effective refractory period (ERP) [6, 16] [ms] | change (prolongation) of APD90 in ventricles ([11]; CL=500 ms) | DTE (% Δ) Ventricles, diastolic threshold of excitation ([11]; pacing cycle length 0.3 s) [%] | DTE (% Δ) Ventricles, diastolic threshold of excitation ([11]; pacing cycle length 0.5 s) | effect on APD90 in ventricular myocardium, in words [11] | average CL at which 2:1 activation failure developed [12, 17] [ms] | also measured |
| --- | --- | --- | --- | --- | --- | --- | --- | --- | --- | --- | --- | --- |
| COc1ccccc1OCC(O)CN1CCN(CC(=O)Nc2c(C)cccc2C)CC1 (racemic) [Ranolazine, (±)-N-(2,6-dimethylphenyl)-4-[2-hydroxy-3-(2-methoxyphenoxy)-propyl]-1-piperazineacetamide] | striking atrial selectivity | 11 | prolongation | 66% (4/6) | 159 ± 9 | 190 ± 24 | +2% | 8 | +3% | no effect | 190 | half-inactivation voltage (V0.5) of steady-state inactivation after ranolazine [1]: −91.38±0.35 mV; effect on APD90 in Purkinje fibers, in words [3]: abbreviation; IC50 [4]: 12 µM; action potential duration APD75 [6, 14]: 189 ± 9 ms; effective refractory period (ERP) [6, 14]: 258 ± 50 ms; shortest pacing CL permitting 1:1 response ([6]; in presence of acetylcholine (ACh), control 71±12): 94 ± 31 ms; shortest pacing CL permitting a 1:1 response ([6]; without acetylcholine, control 129±8): 234 ± 49 ms; IC50 [7]: 294 µM; IC50 [8]: > 100 µM; half-inactivation voltage (V0.5) of steady-state inactivation after ranolazine [9]: −74.81±0.14 mV; atria in which induction of AF was prevented [10]: 4 of 5; average CL at which 2:1 activation failure developed ([12]; 5 μM RAN superfused on chronic Amio PV sleeves, n=5): 1350 ms; average CL at which 2:1 activation failure developed ([12]; 10 μM RAN superfused on chronic Amio PV sleeves, n=5): 1660 ms; late phase 3 EAD- and DAD-induced triggered activity ([12]; RAN 5-10 μM added to chronic Amio PV sleeves, Iso and/or ACh, rapid pacing): completely eliminated; IC50 [13]: 6 µM |
| CCN(CC)CC(=O)Nc1c(C)cccc1C [Lidocaine, lidocaine] | much less atrial-selective than ranolazine or chronic amiodarone | – | abbreviated | 33% (2/6) | – | – | – | 40 | +8% | abbreviated | – | abbreviation of APD90 in atria ([2]; CL=500 ms): 6%; abbreviation of APD90 in ventricles ([11]; CL=500 ms): 9% |
| CCCNCC(O)COc1ccccc1C(=O)CCc1ccccc1 (stereo not shown) [Propafenone, propafenone] | – | 13 | – | 100% (7/7) | – | – | +3% | 125 | +84% | – | – | – |
| CCCCc1oc2ccccc2c1C(=O)c1cc(I)c(OCCN(CC)CC)c(I)c1 [Chronic Amiodarone, amiodarone] | – | 22 | – | – | 183 ± 7 | 222 ± 12 | 12% | – | – | – | 420 | atria in which persistent acetylcholine-mediated AF could be induced ([5]; atria isolated from dogs chronically treated, versus 10 of 10 untreated atria): 1 of 6; maximal rate of rise of AP upstroke (Vmax) ([12]; PV sleeves from dogs treated with chronic Amio (6 weeks, 40 mg/kg daily), CL 1000 ms, untreated controls 314±79): 115±89 V/s |
